From ChEMBL document CHEMBL2380247, “Synthesis and biological evaluation of novel aliphatic amido-quaternary ammonium salts for anticancer chemotherapy: part II” (2013)

Legend:
Format in all cases: functional
[1] = system: PC-3; assay: Antiproliferative activity against human PC3 cells at 1 uM by SRB assay
[2] = system: HCT-15; assay: Antiproliferative activity against human HCT15 cells at 10 uM by SRB assay
[3] = system: NCI-H23; assay: Antiproliferative activity against human NCI-H23 cells at 0.3 uM by SRB assay
[4] = system: HCT-15; assay: Antiproliferative activity against human HCT15 cells by SRB assay
[5] = system: MDA-MB-231; assay: Antiproliferative activity against human MDA-MB-231 cells by SRB assay
[6] = system: HCT-15; assay: Antiproliferative activity against human HCT15 cells at 3 uM by SRB assay
[7] = system: NUGC-3; assay: Antiproliferative activity against human NUGC3 cells at 0.3 uM by SRB assay
[8] = system: ACHN; assay: Antiproliferative activity against human ACHN cells at 1 uM by SRB assay
[9] = system: MDA-MB-231; assay: Antiproliferative activity against human MDA-MB-231 cells at 3 uM by SRB assay
[10] = system: MDA-MB-231; assay: Antiproliferative activity against human MDA-MB-231 cells at 0.1 uM by SRB assay
[11] = system: PC-3; assay: Antiproliferative activity against human PC3 cells at 0.1 uM by SRB assay
[12] = system: NCI-H23; assay: Antiproliferative activity against human NCI-H23 cells at 0.1 uM by SRB assay
[13] = system: NCI-H23; assay: Antiproliferative activity against human NCI-H23 cells at 10 uM by SRB assay
[14] = system: NCI-H23; assay: Antiproliferative activity against human NCI-H23 cells at 1 uM by SRB assay
[15] = system: NCI-H23; assay: Antiproliferative activity against human NCI-H23 cells by SRB assay
[16] = system: NUGC-3; assay: Antiproliferative activity against human NUGC3 cells by SRB assay
[17] = system: PC-3; assay: Antiproliferative activity against human PC3 cells at 10 uM by SRB assay
[18] = system: HCT-15; assay: Antiproliferative activity against human HCT15 cells at 0.1 uM by SRB assay
[19] = system: HCT-15; assay: Antiproliferative activity against human HCT15 cells at 1 uM by SRB assay
[20] = system: NCI-H23; assay: Antiproliferative activity against human NCI-H23 cells at 3 uM by SRB assay
[21] = system: PC-3; assay: Antiproliferative activity against human PC3 cells by SRB assay
[22] = system: ACHN; assay: Antiproliferative activity against human ACHN cells by SRB assay
[23] = system: MDA-MB-231; assay: Antiproliferative activity against human MDA-MB-231 cells at 0.3 uM by SRB assay
[24] = system: HCT-15; assay: Antiproliferative activity against human HCT15 cells at 0.3 uM by SRB assay
[25] = system: MDA-MB-231; assay: Antiproliferative activity against human MDA-MB-231 cells at 1 uM by SRB assay
[26] = system: PC-3; assay: Antiproliferative activity against human PC3 cells at 0.3 uM by SRB assay
[27] = system: ACHN; assay: Antiproliferative activity against human ACHN cells at 0.1 uM by SRB assay
[28] = system: PC-3; assay: Antiproliferative activity against human PC3 cells at 3 uM by SRB assay
[29] = system: MDA-MB-231; assay: Antiproliferative activity against human MDA-MB-231 cells at 10 uM by SRB assay
[30] = system: NUGC-3; assay: Antiproliferative activity against human NUGC3 cells at 10 uM by SRB assay
[31] = system: NUGC-3; assay: Antiproliferative activity against human NUGC3 cells at 0.1 uM by SRB assay
[32] = system: ACHN; assay: Antiproliferative activity against human ACHN cells at 3 uM by SRB assay
[33] = system: ACHN; assay: Antiproliferative activity against human ACHN cells at 0.3 uM by SRB assay
[34] = system: NUGC-3; assay: Antiproliferative activity against human NUGC3 cells at 3 uM by SRB assay
[35] = system: NUGC-3; assay: Antiproliferative activity against human NUGC3 cells at 1 uM by SRB assay
[36] = system: ACHN; assay: Antiproliferative activity against human ACHN cells at 10 uM by SRB assay

SMILES	growth, % of control at 1 µM [1]	growth, % of control at 10 µM [2]	growth, % of control at 0.3 µM [3]	GI50 [4]	GI50 [5]	growth, % of control at 3 µM [6]	growth, % of control at 0.3 µM [7]	growth, % of control at 1 µM [8]	growth, % of control at 3 µM [9]	growth, % of control at 0.1 µM [10]	growth, % of control at 0.1 µM [11]	growth, % of control at 0.1 µM [12]	growth, % of control at 10 µM [13]	growth, % of control at 1 µM [14]	GI50 [15]	GI50 [16]	growth, % of control at 10 µM [17]	growth, % of control at 0.1 µM [18]	growth, % of control at 1 µM [19]	GI50 [21]	other results
C=CC[N+](CC)(CC)CCN(C)C(=O)CCCCCCCCCCCCCCC	0.8%	32%	54.8%	1980 nM	440 nM	55.2%	76.9%	30.2%	21%	96.1%	92.9%	81.2%	-15%	19.3%	170 nM	270 nM	-19.6%	86.1%	78.6%	200 nM	growth, % of control at 3 µM [20]: 10.7%; GI50 [22]: 350 nM; growth, % of control at 0.3 µM [23]: 92.5%; growth, % of control at 0.3 µM [24]: 87.9%; growth, % of control at 1 µM [25]: 38.7%; growth, % of control at 0.3 µM [26]: 81.8%; growth, % of control at 0.1 µM [27]: 115%; growth, % of control at 3 µM [28]: -14.3%; growth, % of control at 10 µM [29]: -6.4%; growth, % of control at 10 µM [30]: -6.2%; growth, % of control at 0.1 µM [31]: 101%; growth, % of control at 3 µM [32]: 8.1%; growth, % of control at 0.3 µM [33]: 87.7%; growth, % of control at 3 µM [34]: 5.3%; growth, % of control at 1 µM [35]: 22.9%; growth, % of control at 10 µM [36]: -18.9%
CCCCCCCCCCCCCCCC(=O)N(C)CC[N+](CC)(CC)CC	12.6%	3.4%	84.9%	610 nM	360 nM	24.6%	53.4%	16.7%	12.6%	94.3%	87.4%	84%	8.5%	72.7%	1110 nM	160 nM	-24.2%	89.1%	56.7%	230 nM	growth, % of control at 3 µM [20]: 45.2%; GI50 [22]: 270 nM; growth, % of control at 0.3 µM [23]: 80.4%; growth, % of control at 0.3 µM [24]: 83.5%; growth, % of control at 1 µM [25]: 33.1%; growth, % of control at 0.3 µM [26]: 71.9%; growth, % of control at 0.1 µM [27]: 106%; growth, % of control at 3 µM [28]: -5.6%; growth, % of control at 10 µM [29]: -17.3%; growth, % of control at 10 µM [30]: -50%; growth, % of control at 0.1 µM [31]: 99.2%; growth, % of control at 3 µM [32]: -15.6%; growth, % of control at 0.3 µM [33]: 78.5%; growth, % of control at 3 µM [34]: -43.8%; growth, % of control at 1 µM [35]: -14.6%; growth, % of control at 10 µM [36]: -42.5%
CCCCCCCCCCCCCCCC(=O)N1CC[N+](C)(C)CC1	–	–	–	580 nM	–	–	–	–	–	–	–	–	–	–	–	290 nM	–	–	–	480 nM	–
CCCCCCCCCCCCCC(=O)N(C)CCC[N+](C)(C)Cc1ccccc1	56.5%	25.1%	80%	2830 nM	1410 nM	78.5%	90%	99.3%	44.2%	105%	101%	81%	-11.5%	70.4%	660 nM	430 nM	-13.1%	89.9%	93.6%	530 nM	growth, % of control at 3 µM [20]: 14.7%; GI50 [22]: 1890 nM; growth, % of control at 0.3 µM [23]: 106%; growth, % of control at 0.3 µM [24]: 86.7%; growth, % of control at 1 µM [25]: 97.2%; growth, % of control at 0.3 µM [26]: 87.4%; growth, % of control at 0.1 µM [27]: 107%; growth, % of control at 3 µM [28]: 4.38%; growth, % of control at 10 µM [29]: -2.09%; growth, % of control at 10 µM [30]: -11.6%; growth, % of control at 0.1 µM [31]: 84.5%; growth, % of control at 3 µM [32]: 72.3%; growth, % of control at 0.3 µM [33]: 109%; growth, % of control at 3 µM [34]: 8.51%; growth, % of control at 1 µM [35]: 43.8%; growth, % of control at 10 µM [36]: 1.92%
